{"source": "ChEMBL document CHEMBL5649167", "about": "“The SUV4-20 inhibitor A-196 verifies a role for epigenetics in genomic integrity” (Nat Chem Biol, 2017)", "key": {"U2OS [1]": {"system": "U2OS", "experiment": "Inhibition of H4K20me2 in human U2OS cells assessed as change in methylation level at 10 uM incubated for 48 hrs by Western blotting analysis", "format": "functional, cell-based"}, "MEF [2]": {"system": "MEF", "experiment": "Antiproliferative activity against mouse MEF cells assessed as change in H4K20me3 at 10 uM incubated for 3 days by immunofluorescence analysis", "format": "functional, cell-based", "settings": "time 3.0 day"}, "MEF [3]": {"system": "MEF", "experiment": "Antiproliferative activity against mouse MEF cells assessed as change in H4K20me1 at 10 uM incubated for 3 days by immunofluorescence analysis", "format": "functional, cell-based", "settings": "time 3.0 day"}, "Homo sapiens": {"species": "Homo sapiens", "experiment": "Inhibition of GABAA (unknown origin) at 10 uM relative to control"}, "[4]": {"target": "Protein arginine N-methyltransferase 6 (Homo sapiens) (UniProt Q96LA8)", "experiment": "Inhibition of PRMT6 (unknown origin) using Biotin-tagged H4K20me1 and [3H-SAM] as substrate at 1 to 10 uM incubated for 2 hrs by scintillation proximity assay", "settings": "dose 1-10 µM"}, "[5]": {"target": "Protein arginine N-methyltransferase 7 (Homo sapiens) (UniProt Q9NVM4)", "experiment": "Inhibition of PRMT7 (unknown origin) using Biotin-tagged H4K20me1 and [3H-SAM] as substrate at 1 to 10 uM incubated for 2 hrs by scintillation proximity assay", "settings": "dose 1-10 µM"}, "[6]": {"target": "Histone-lysine N-methyltransferase SETD7 (Homo sapiens) (UniProt Q8WTS6)", "sequence (Q8WTS6 whole entry)": "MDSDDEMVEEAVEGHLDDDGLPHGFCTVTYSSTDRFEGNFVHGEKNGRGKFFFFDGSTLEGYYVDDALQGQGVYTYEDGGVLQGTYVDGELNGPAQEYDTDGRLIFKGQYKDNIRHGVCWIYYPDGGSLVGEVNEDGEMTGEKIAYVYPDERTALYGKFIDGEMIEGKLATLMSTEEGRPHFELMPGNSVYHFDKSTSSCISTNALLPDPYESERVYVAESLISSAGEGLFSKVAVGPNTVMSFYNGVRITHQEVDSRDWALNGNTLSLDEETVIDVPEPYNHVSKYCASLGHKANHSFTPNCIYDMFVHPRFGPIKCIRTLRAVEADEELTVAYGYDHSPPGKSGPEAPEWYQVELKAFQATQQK", "experiment": "Inhibition of SETD7 (unknown origin) using Biotin-tagged H4K20me1 and [3H-SAM] as substrate at 1 to 10 uM incubated for 2 hrs by scintillation proximity assay", "settings": "dose 1-10 µM"}, "[7]": {"target": "Histone-lysine N-methyltransferase SETDB1 (Homo sapiens) (UniProt Q15047)", "experiment": "Inhibition of SETDB1 (unknown origin) using Biotin-tagged H4K20me1 and [3H-SAM] as substrate at 1 to 10 uM incubated for 2 hrs by scintillation proximity assay", "settings": "dose 1-10 µM"}, "[8]": {"target": "Histone-lysine N-methyltransferase SUV39H2 (Homo sapiens) (UniProt Q9H5I1)", "experiment": "Inhibition of SUV39H2 (unknown origin) using Biotin-tagged H4K20me1 and [3H-SAM] as substrate at 1 to 10 uM incubated for 2 hrs by scintillation proximity assay", "settings": "dose 1-10 µM"}, "[9]": {"target": "Histone-lysine N-methyltransferase EHMT1 (Homo sapiens) (UniProt Q9H9B1)", "sequence (Q9H9B1 whole entry)": "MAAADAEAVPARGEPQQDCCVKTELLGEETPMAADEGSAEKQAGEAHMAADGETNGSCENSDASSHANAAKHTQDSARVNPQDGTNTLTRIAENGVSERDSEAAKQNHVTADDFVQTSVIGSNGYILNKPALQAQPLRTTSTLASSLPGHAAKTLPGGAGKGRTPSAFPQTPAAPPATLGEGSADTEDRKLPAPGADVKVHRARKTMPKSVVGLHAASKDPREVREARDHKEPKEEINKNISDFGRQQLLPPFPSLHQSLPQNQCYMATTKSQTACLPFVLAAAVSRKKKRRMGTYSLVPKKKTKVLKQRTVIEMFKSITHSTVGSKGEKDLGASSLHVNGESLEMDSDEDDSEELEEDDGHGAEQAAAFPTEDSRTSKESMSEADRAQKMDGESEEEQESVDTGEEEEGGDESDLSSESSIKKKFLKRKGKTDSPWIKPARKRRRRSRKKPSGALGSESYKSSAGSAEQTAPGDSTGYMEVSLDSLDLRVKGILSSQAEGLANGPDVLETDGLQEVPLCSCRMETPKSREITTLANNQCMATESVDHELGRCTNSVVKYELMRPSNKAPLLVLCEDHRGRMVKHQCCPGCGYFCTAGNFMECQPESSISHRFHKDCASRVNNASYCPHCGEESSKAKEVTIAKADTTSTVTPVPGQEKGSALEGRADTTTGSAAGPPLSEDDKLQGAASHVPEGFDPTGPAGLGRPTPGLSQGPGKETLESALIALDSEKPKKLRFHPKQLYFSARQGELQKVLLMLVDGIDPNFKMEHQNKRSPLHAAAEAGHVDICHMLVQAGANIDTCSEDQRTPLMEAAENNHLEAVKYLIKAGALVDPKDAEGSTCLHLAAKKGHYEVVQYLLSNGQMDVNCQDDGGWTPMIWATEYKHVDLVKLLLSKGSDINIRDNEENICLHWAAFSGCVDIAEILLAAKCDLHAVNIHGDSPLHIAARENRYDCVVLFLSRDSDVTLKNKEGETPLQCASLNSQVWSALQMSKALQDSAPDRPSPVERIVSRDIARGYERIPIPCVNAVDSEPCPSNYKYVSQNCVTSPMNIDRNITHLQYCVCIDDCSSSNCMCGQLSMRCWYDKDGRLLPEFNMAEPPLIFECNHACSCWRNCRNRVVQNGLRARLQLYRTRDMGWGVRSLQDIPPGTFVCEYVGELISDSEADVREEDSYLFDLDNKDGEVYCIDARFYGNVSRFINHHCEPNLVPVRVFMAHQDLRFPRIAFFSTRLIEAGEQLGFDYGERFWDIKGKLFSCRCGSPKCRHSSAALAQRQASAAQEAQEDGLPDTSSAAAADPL", "experiment": "Inhibition of EHMT1 (unknown origin) using Biotin-tagged H4K20me1 and [3H-SAM] as substrate at 1 to 10 uM incubated for 2 hrs by scintillation proximity assay", "settings": "dose 1-10 µM"}, "[10]": {"target": "Histone-lysine N-methyltransferase PRDM9 (Homo sapiens) (UniProt Q9NQV7)", "experiment": "Inhibition of PRDM9 (unknown origin) using Biotin-tagged H4K20me1 and [3H-SAM] as substrate at 1 to 10 uM incubated for 2 hrs by scintillation proximity assay", "settings": "dose 1-10 µM"}, "[11]": {"target": "Histone-lysine N-methyltransferase ASH1L (Homo sapiens) (UniProt Q9NR48)", "experiment": "Inhibition of ASH1L (unknown origin) at 1 to 10 uM incubated for 1 hrs by scintillation proximity assay", "settings": "dose 1-10 µM"}, "[12]": {"target": "DNMT3A2/3L complex (Homo sapiens) (UniProt Q9Y6K1+Q9UJW3)", "sequence (Q9UJW3 whole entry, looked up)": "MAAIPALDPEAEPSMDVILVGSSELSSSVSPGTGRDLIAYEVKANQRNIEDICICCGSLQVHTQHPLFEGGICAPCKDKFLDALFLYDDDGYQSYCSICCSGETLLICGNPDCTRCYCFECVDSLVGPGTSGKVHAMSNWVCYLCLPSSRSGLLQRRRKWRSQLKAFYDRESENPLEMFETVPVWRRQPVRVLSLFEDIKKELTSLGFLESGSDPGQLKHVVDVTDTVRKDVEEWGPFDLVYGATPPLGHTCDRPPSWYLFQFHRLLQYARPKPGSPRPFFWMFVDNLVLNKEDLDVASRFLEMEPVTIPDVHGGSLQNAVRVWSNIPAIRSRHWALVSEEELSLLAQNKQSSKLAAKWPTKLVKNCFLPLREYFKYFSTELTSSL", "sequence (Q9Y6K1 whole entry, looked up)": "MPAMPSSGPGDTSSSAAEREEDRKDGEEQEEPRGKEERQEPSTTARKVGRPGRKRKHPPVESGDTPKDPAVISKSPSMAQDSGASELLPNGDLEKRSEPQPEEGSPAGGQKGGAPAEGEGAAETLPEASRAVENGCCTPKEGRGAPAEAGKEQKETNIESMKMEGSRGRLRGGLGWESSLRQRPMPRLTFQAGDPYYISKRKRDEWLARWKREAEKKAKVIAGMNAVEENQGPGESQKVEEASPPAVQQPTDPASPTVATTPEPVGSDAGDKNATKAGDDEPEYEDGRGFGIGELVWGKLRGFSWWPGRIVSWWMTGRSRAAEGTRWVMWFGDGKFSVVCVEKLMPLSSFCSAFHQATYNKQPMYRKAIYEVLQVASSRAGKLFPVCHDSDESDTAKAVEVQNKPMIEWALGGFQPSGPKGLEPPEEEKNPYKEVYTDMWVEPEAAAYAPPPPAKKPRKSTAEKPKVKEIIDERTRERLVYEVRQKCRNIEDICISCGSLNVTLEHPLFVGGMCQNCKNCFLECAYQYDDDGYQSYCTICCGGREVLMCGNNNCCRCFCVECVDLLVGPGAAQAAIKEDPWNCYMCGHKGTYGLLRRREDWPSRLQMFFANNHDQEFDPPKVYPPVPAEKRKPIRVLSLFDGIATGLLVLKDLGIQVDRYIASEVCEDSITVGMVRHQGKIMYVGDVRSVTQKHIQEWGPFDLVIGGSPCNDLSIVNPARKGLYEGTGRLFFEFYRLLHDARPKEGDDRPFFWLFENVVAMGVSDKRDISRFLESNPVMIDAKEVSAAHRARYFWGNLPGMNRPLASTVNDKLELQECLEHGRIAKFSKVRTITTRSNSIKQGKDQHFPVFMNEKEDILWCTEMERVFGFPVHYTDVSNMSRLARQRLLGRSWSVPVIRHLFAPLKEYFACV", "experiment": "Inhibition of DNMT3A/3L (unknown origin) at 1 to 10 uM incubated for 1 hrs by scintillation proximity assay", "format": "protein-complex assay", "settings": "dose 1-10 µM"}, "[13]": {"target": "Histone-lysine N-methyltransferase KMT5B (Homo sapiens) (UniProt Q4FZB7)", "experiment": "Binding affinity to recombinant human 6His-(Tev)-G-SUV420H1 (69 to 335 residues) assessed as increase thermal stability by measuring change in melting temperature at 50 uM in the presence of SAM by thermal shift assay"}, "HL-60 [14]": {"system": "HL-60", "experiment": "Cytotoxicity against human HL-60 cells assessed as cell viability at 1.5 to 100 uM incubated after 72 hrs", "format": "functional, cell-based", "settings": "dose 1.5-100 µM"}, "LNCaP": {"system": "LNCaP", "experiment": "Cytotoxicity against human LNCaP cells assessed as cell viability upto 12.5 uM incubated for 48 hrs", "format": "functional, cell-based"}, "HL-60 [15]": {"system": "HL-60", "experiment": "Cytotoxicity against human HL-60 cells assessed as cell viability upto 12.5 uM incubated for 48 hrs", "format": "functional, cell-based"}, "HeLa": {"system": "HeLa", "experiment": "Antiproliferative activity against human HeLa cells assessed as inhibition in H4K20me3 expression level for 21 doublings by Western blot analysis", "format": "functional, cell-based"}, "U2OS [16]": {"system": "U2OS", "experiment": "Induction of DNA repair in human U2OS cells assessed as inhibition in 53BP1 foci formation at 1 uM measured after 24 hrs in the presence of 10 Gy of ionizing radiation by immunofluorescence analysis", "format": "functional, cell-based"}, "U2OS [17]": {"system": "U2OS", "experiment": "Induction of DNA repair in human U2OS cells expressing I-SceI reporter assessed as increase in H4K20me1 level by Western blot analysis", "format": "functional, cell-based"}, "U2OS [18]": {"system": "U2OS", "experiment": "Induction of DNA repair in human U2OS cells expressing I-SceI reporter assessed as substantially inhibition in NHEJ-mediated repair at 1 uM by flow cytometry analysis", "format": "functional, cell-based"}, "U2OS [19]": {"system": "U2OS", "experiment": "Inhibition of colony formation in human U2OS cells at 1 uM incubated for 48 hrs in the presence of MMC by cell clonogenic assay", "format": "functional, cell-based"}, "[20]": {"target": "MAP kinase-interacting serine/threonine-protein kinase 2 (Homo sapiens) (UniProt Q9HBH9)", "experiment": "Inhibition of human MNK2 at 10 uM relative to control"}, "[21]": {"target": "Serine/threonine-protein kinase Chk1 (Homo sapiens) (UniProt O14757)", "experiment": "Inhibition of human CHK1 at 10 uM relative to control"}, "[22]": {"target": "Tyrosine-protein kinase ABL1 (Homo sapiens) (UniProt P00519)", "experiment": "Inhibition of human Abl at 10 uM relative to control"}, "[23]": {"target": "cAMP-dependent protein kinase (PKA) (Homo sapiens) (UniProt P22694+P17612+P22612)", "experiment": "Inhibition of human PKA at 10 uM relative to control", "format": "protein assay"}, "[24]": {"target": "Rho-associated protein kinase 1 (Homo sapiens) (UniProt Q13464)", "sequence (Q13464 2-1354 limits assumed)": "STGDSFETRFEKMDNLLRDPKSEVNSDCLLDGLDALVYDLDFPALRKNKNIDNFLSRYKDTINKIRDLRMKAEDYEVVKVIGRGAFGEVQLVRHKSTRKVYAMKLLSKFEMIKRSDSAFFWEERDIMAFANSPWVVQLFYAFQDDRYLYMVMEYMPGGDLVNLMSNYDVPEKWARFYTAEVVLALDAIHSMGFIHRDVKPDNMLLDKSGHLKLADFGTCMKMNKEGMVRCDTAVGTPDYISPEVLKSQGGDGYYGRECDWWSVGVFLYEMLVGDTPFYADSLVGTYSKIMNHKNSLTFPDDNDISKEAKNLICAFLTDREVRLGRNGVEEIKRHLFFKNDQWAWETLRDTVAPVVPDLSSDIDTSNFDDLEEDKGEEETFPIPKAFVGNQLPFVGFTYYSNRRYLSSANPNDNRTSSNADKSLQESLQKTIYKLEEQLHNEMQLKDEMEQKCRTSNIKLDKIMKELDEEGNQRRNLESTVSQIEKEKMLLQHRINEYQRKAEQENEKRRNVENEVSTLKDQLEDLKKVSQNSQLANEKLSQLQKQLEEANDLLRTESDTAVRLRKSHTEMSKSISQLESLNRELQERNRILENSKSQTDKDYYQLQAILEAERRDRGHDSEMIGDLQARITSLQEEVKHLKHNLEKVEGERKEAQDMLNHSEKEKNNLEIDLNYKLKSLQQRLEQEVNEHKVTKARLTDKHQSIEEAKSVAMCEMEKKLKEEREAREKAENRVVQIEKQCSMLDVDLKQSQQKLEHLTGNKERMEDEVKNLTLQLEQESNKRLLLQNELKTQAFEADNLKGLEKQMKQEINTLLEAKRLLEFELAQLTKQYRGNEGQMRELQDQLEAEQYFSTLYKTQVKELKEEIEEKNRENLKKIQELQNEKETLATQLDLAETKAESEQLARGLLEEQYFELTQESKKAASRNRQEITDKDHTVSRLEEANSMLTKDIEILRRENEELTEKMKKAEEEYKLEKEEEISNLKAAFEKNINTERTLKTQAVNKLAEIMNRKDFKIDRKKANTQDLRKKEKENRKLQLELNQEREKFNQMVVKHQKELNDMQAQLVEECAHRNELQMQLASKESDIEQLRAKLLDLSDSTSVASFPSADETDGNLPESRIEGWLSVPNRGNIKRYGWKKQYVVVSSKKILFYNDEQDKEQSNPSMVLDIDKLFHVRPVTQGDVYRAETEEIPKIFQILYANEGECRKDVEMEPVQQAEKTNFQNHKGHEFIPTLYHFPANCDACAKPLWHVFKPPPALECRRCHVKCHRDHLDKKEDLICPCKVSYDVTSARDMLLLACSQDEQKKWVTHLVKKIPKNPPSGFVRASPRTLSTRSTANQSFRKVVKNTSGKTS", "experiment": "Inhibition of human ROCK1 at 10 uM relative to control"}, "[25]": {"target": "Proto-oncogene tyrosine-protein kinase Src (Homo sapiens) (UniProt P12931)", "experiment": "Inhibition of human Src at 10 uM relative to control"}, "[26]": {"target": "Serine/threonine-protein kinase pim-2 (Homo sapiens) (UniProt Q9P1W9)", "sequence (Q9P1W9 whole entry, looked up)": "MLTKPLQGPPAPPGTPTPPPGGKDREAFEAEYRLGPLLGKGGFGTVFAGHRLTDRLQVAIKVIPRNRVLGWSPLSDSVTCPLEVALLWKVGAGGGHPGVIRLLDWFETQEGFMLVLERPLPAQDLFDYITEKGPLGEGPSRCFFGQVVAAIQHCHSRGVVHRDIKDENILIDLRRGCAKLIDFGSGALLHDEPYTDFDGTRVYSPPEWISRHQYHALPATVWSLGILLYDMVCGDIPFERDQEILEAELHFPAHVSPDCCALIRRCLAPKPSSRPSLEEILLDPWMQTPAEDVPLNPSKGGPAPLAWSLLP", "experiment": "Inhibition of human Pim2 at 10 uM relative to control"}, "[27]": {"target": "Epidermal growth factor receptor (Homo sapiens) (UniProt P00533)", "experiment": "Inhibition of human EGFR at 10 uM relative to control"}, "[28]": {"target": "Fibroblast growth factor receptor 1 (Homo sapiens) (UniProt P11362)", "experiment": "Inhibition of human FGFR1 kinase at 10 uM relative to control"}, "[29]": {"target": "Mitogen-activated protein kinase 8 (Homo sapiens) (UniProt P45983)", "sequence (P45983 whole entry)": "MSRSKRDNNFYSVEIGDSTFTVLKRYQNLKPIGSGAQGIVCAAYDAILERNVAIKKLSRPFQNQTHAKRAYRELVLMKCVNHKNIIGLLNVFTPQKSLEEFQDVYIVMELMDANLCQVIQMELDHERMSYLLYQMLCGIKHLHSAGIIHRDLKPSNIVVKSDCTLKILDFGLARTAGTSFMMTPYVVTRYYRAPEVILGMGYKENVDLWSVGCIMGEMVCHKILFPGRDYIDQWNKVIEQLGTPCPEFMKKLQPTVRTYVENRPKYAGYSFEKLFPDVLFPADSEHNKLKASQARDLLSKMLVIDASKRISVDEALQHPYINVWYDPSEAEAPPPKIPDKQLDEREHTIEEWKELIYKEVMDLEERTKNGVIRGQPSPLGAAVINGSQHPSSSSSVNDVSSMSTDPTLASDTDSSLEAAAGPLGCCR", "experiment": "Inhibition of human JNK1 at 10 uM relative to control"}, "[30]": {"target": "Serine/threonine-protein kinase PLK1 (Homo sapiens) (UniProt P53350)", "experiment": "Inhibition of human PLK1 at 10 uM relative to control"}, "[31]": {"target": "5-hydroxytryptamine receptor 1B (Homo sapiens) (UniProt P28222)", "experiment": "Inhibition of human 5-hydroxytryptamine receptor 1B at 10 uM relative to control"}, "Rattus norvegicus": {"species": "Rattus norvegicus", "experiment": "Inhibition of Rat alpha 2-Adrenoceptor at 10 uM relative to control"}, "[32]": {"target": "Sodium-dependent dopamine transporter (Homo sapiens) (UniProt Q01959)", "experiment": "Inhibition of human DAT in stable HEK cells at 10 uM relative to control", "format": "cell-based"}}, "note": "Calls of active or inactive are those of the source. The calls are words filed in the database; no cut-off is given here."}
{"smiles": "O=C(c1nnc(NC2CCCC2)c2cc(Cl)c(Cl)cc12)N1CCC(O)CC1", "values": [{"measurement": "Activity", "setting": "U2OS [1]", "result": "inactive"}, {"measurement": "Activity", "setting": "MEF [2]", "result": "inactive"}, {"measurement": "Activity", "setting": "MEF [3]", "result": "inactive"}, {"measurement": "inhibition", "setting": "Homo sapiens", "result": 25, "unit": "%"}]}
{"smiles": "Clc1cc2c(NC3CCCC3)nnc(-c3ccncc3)c2cc1Cl", "values": [{"measurement": "inhibition", "setting": "[4]", "result": "inactive"}, {"measurement": "inhibition", "setting": "[5]", "result": "inactive"}, {"measurement": "inhibition", "setting": "[6]", "result": "inactive"}, {"measurement": "inhibition", "setting": "[7]", "result": "inactive"}, {"measurement": "inhibition", "setting": "[8]", "result": "inactive"}, {"measurement": "inhibition", "setting": "[9]", "result": "inactive"}, {"measurement": "inhibition", "setting": "[10]", "result": "inactive"}, {"measurement": "inhibition", "setting": "[11]", "result": "inactive"}, {"measurement": "inhibition", "setting": "[12]", "result": "inactive"}, {"measurement": "ΔTm", "setting": "[13]", "result": 12.5, "unit": "°C"}, {"measurement": "Activity", "setting": "HL-60 [14]", "result": "Active"}, {"measurement": "Activity", "setting": "LNCaP", "result": "Active"}, {"measurement": "Activity", "setting": "HL-60 [15]", "result": "Active"}, {"measurement": "Activity", "setting": "HeLa", "result": "Active"}, {"measurement": "inhibition", "setting": "U2OS [16]", "result": "Active"}, {"measurement": "Activity", "setting": "U2OS [17]", "result": "Active"}, {"measurement": "Activity", "setting": "U2OS [18]", "result": "Active"}, {"measurement": "inhibition", "setting": "U2OS [19]", "result": "Active"}, {"measurement": "inhibition", "setting": "[20]", "result": 7, "unit": "%"}, {"measurement": "inhibition", "setting": "[21]", "result": 3, "unit": "%"}, {"measurement": "inhibition", "setting": "[22]", "result": 2, "unit": "%"}, {"measurement": "inhibition", "setting": "[23]", "result": -1, "unit": "%"}, {"measurement": "inhibition", "setting": "[24]", "result": -1, "unit": "%"}, {"measurement": "inhibition", "setting": "[25]", "result": -1, "unit": "%"}, {"measurement": "inhibition", "setting": "[26]", "result": -3, "unit": "%"}, {"measurement": "inhibition", "setting": "[27]", "result": -4, "unit": "%"}, {"measurement": "inhibition", "setting": "[28]", "result": -8, "unit": "%"}, {"measurement": "inhibition", "setting": "[29]", "result": -8, "unit": "%"}, {"measurement": "inhibition", "setting": "[30]", "result": -10, "unit": "%"}, {"measurement": "inhibition", "setting": "[31]", "result": 20, "unit": "%"}, {"measurement": "inhibition", "setting": "Rattus norvegicus", "result": 5, "unit": "%"}, {"measurement": "inhibition", "setting": "[32]", "result": -4, "unit": "%"}]}
